Data published in patent publication EP0449699A2, “Pyrazole derivatives as angiotensin II-receptor antagonists, process for their preparation and pharmaceutical compositions containing them” (LABORATOIRES UPSA, priority 1990, dated 1991).

Test system: récepteurs surrénaliens de l'angiotensine II
Assay: Displacement of radioligand [125I]-SIAII specifically bound to adrenal angiotensin II receptors (rat adrenal homogenate)
Format: binding
Conditions: 60 min, 25°C
Description: L'affinité des produits des exemples pour les récepteurs de l'angiotensine II est évaluée par technique de déplacement d'un radioligand spécifiquement fixé sur les récepteurs surrénaliens de l'angiotensine Il, chez le rat.
Une aliquote d'un homogénat de surrénales de rat incube en présence d'une concentration unique de [^125I]-SIAII (Sar^1, Tyr^4, Ile^8 - angiotensine II), antagoniste des récepteurs de l'angiotensine II, et de deux concentrations d'agents compétiteurs (10^-5 M, 10-^7 M) durant 60 min à 25°C.
La réaction est achevée par ajout de tampon, puis rapide filtration à travers des filtres de papier de verre. La liaison non spécifique est déterminée en présence d'angiotensine Il.
Les résultats sont exprimés, pour les concentrations testées, en pourcentage de déplacement du radioligand spécifiquement fixé sur les récepteurs surrénaliens de l'angiotensine Il.

SMILES | % de déplacement du ligand marqué (competitor 1E-5 M, 10 µM) | % de déplacement du ligand marqué (competitor 1E-7 M, 0.1 µM)
CCCc1nn(C)c(OC(=O)N(C)C)c1Cc1ccc(-c2ccccc2-c2nn[nH]n2)cc1 [Exemple 86, Méthyl-1 n-Propyl-3 [(tétrazolyl-5)-2' biphényl-yl-4] méthyl-4 (N,N-diméthyl carbamoyl) oxy-5 pyrazole] | 58% | 41%
CCCc1nn(C)c(COC)c1Cc1ccc(NC(=O)c2ccccc2S(=O)(=O)O)cc1 [Exemple 107, Acide [(Méthyl-1 n-propyl-3 méthoxy méthyl-5 pyrazol-yl-4)méthylphényl-yl-4] amino carbonyl-2 benzène sulfonlque] | 83% | 62%
CCCc1n[nH]c(COC)c1Cc1ccc(NC(=O)c2ccccc2S(=O)(=O)O)cc1 [Exemple 108, Acide [(n-propyl-3 méthoxy méthyl-5 pyrazol-yl-4)méthylphényl-yl-4] amino carbonyl-2 benzène sulfonique] | 86% | 19%
CCCc1nn(C)c(CO)c1Cc1ccc(NC(=O)c2ccccc2S(=O)(=O)O)cc1 [Exemple 115, Acide [(méthyl-1 n-propyl-3 hydroxy méthyl-5 pyrazol-yl-4)méthylphényl-yl-4] amino carbonyl-2 benzène sulfonique] | 80% | 57%
CCCc1n[nH]c(CO)c1Cc1ccc(NC(=O)c2ccccc2S(=O)(=O)O)cc1 [Exemple 116, Acide ((n-Propyl-3 hydroxy méthyl-5 pyrazol-yl-4)méthylphényl-yl-4] amino carbonyl-2 benzène sulfonique] | 82% | 12%
CCCCc1nn(C)c(COC)c1Cc1ccc(-c2ccccc2-c2nnn[nH]2)cc1 [Exemple 118, Méthyl-1 n-Butyl-3 [(tétrazolyl-5)2' biphényl-yl-4] méthyl-4 méthoxy méthyl-5 pyrazole] | 67% | 35%

Now from value to compound:

% de déplacement du ligand marqué (competitor 1E-5 M, 10 µM) | % de déplacement du ligand marqué (competitor 1E-7 M, 0.1 µM) | SMILES
65% | 51% | CCCc1nn(CC(F)(F)F)c(OCC(=O)OCC)c1Cc1ccc(-c2ccccc2-c2nn[nH]n2)cc1 [Exemple 84, ((Trifluoro-2,2,2 éthyl)-1 n-Propyl-3 [(tétrazolyl-5)-2' biphényl-yl-4]méthyl-4 pyrazol-yl-5] oxy acétate d'éthyle]
60% | 38% | CCCc1nn(C)c(OCCO)c1Cc1ccc(-c2ccccc2-c2nn[nH]n2)cc1 [Exemple 88, [Méthyl-1 n-Propyl-3 [(tétrazolyl-5)-2'biphényl-yl-4]méthyl-4 pyrazol-yl-5]oxy-2 éthanol]
64% | 40% | CCCCc1nn(C)c(OCC(=O)OCC)c1Cc1ccc(-c2ccccc2-c2nn[nH]n2)cc1 [Exemple 90, [Méthyl-1 n-Butyl-3 [(tétrazolyl-5)-2'blphényl-yl-4]méthyl-4 pyrazol-yl-5] oxy acétate d'éthyle]
75% | 70% | CCCc1nn(CC(F)(F)F)c(OCCO)c1Cc1ccc(-c2ccccc2-c2nn[nH]n2)cc1 [Exemple 92, [(trifluoro-2,2,2 éthyl)-1 n-Propyl-3 [(tétrazolyl-5)-2'biphényl-yl-4]méthyl-4 pyrazol-yl-5] oxy-2 éthanol]
61% | 35% | CCCc1nn(C)c(COC)c1Cc1ccc(-c2ccccc2-c2nnn[nH]2)cc1 [Exemple 117, Méthyl-1 n-propyl-3 [(tétrazolyl-5)-2'biphényl-yl-4] méthyl-4 méthoxy méthyl-5 pyrazole]
70% | 54% | CCCCc1nn(CC(F)(F)F)c(COC)c1Cc1ccc(-c2ccccc2-c2nnn[nH]2)cc1 [Exemple 119, (Trifluoro-2,2,2 éthyl)-1 n-butyl-3 [(tétrazolyl-5)-2' biphényl-yl-4] méthyl-4 méthoxy méthyl-5 pyrazole]
